US20130065959A1, “SANITIZING MEAT WITH PERACID AND 2-HYDROXY ORGANIC ACID COMPOSITIONS” (Fresh Express Incorporated, priority 2009, published 2013)

Legend:
[1] = cited from earlier work
[2] = system: indigenous microorganisms; test: Reduction of indigenous microorganisms on Romaine, Aerobic Plate Counts, commercial scale test (Example 5); assay type: cell-based; conditions: 73-84 ppm peroxyacetic acid, no lactic acid
Experimental: (§1) Example 5. These experiments evaluated the consumption or depletion of peroxyacetic acid when used to wash produce.
(§2) Treatments: chlorinated water, peroxyacetic acid wash water, and FE sanitizer wash water
(§3) Temperature: 38 to 40° F.
(§4) Produce: 1.5″×2″ diced Romaine lettuce
A. Determination of the amount of Romaine Lettuce that could deplete 600 gallons of peroxyacetic acid wash water. • 1. Perform full sanitization on the Pilot Line System. • 2. Fill the 2nd flume tank, 2nd reservoir, and 2nd filtering tank with tap water. • 3. Recycle the water through the system until the water in the system is being cooled down to 40° F. • 4. Calibrate the Prominent System and use the Prominent System to monitor the concentration of PAA in the wash water. • 5. Add the PAA to the 2nd filtering tank until the target processing limit is reached. • 6. Dice the Romaine Lettuce via the translicer. • 7. Collect the 2″×2″ diced Romaine in totes. • 8. Record the weight of each tote prior to transferring it to the 2nd flume. • 9. Collect three untreated bags of Romaine Lettuce from each bin (1 top, 1 middle, and 1 bottom). • 10. Collect three treated bags of Romaine Lettuce at the end of F2 (1 beginning, 1 middle, and 1 end of the bin). • 11. Place white totes at the bottom of the locations with water spill. Return the spilt water back into the flume tank as needed. • 12. […]

[3] = Depletion of sanitizer wash water by diced Romaine, commercial scale test (Example 5); assay type: physicochemical; conditions: 38 to 40 F; for PA (ppm) / Peroxide (ppm): 600 gallons, LA 0 ppm
Experimental: as §1, §2, §3, §4
A. Determination of the amount of Romaine Lettuce that could deplete 600 gallons of peroxyacetic acid wash water. • 1. Perform full sanitization on the Pilot Line System. • 2. Fill the 2nd flume tank, 2nd reservoir, and 2nd filtering tank with tap water. • 3. Recycle the water through the system until the water in the system is being cooled down to 40° F. • 4. Calibrate the Prominent System and use the Prominent System to monitor the concentration of PAA in the wash water. • 5. Add the PAA to the 2nd filtering tank until the target processing limit is reached. • 6. Dice the Romaine Lettuce via the translicer. • 7. Collect the 2″×2″ diced Romaine in totes. • 8. Record the weight of each tote prior to transferring it to the 2nd flume. • 9. Collect three untreated bags of Romaine Lettuce from each bin (1 top, 1 middle, and 1 bottom). • 10. Collect three treated bags of Romaine Lettuce at the end of F2 (1 beginning, 1 middle, and 1 end of the bin). • 11. Place white totes at the bottom of the locations with water spill. Return the spilt water back into the flume tank as needed. • 12. Place white totes at the bottom outlets of the centrifuge to collect liquid that would be spin off from the leaves. Return the collected water back into the flume tank as needed. • 13. Repeat Steps ‘e’ to ‘k’ for the rest of the bins till the FE concentrations fall below the lowest processing limits. • 14. Enumerate the microbial population (APC and Yeast and mold) on the collected samples. B. Determination of the amount of Romaine Lettuce that could deplete 600 gallons of FE wash water • 1. Perform full sanitization on the Pilot Line System. • 2. Fill the 1st flume tank, 2nd flume tank, 1st reservoir, 2nd reservoir, 1^stfiltering tank, and 2nd filtering tank with tap water. • 3. Recycle the water through the system until the water in the system is being cooled down to 40° F. • 4. Switch on the by-passes for the 1st and 2nd flume tank systems so that water would not be going through the filtering systems but only recycling from the flume tank to its associate reservoir continuously. • 5. Add the chemical ingredients to both tank until the target processing limit is reached. • 6. Verify the concentration of FE by the probe of the Prominent Monitoring System at the 1st flume tank (F1), 1st Reservoir (R1), 2nd Flume tank (F2), and the 2nd Reservoir (R2). • 7. Collect water samples from F1 and F2. • 8. Assemble the Romaine Lettuce Bins next to the dumpster. • 9. Transfer whole Romaine Lettuce leaves from the bin to the conveyor. • 10. Ensure that the lid above the F1 is closed. Turn the “ON/OFF” switch of the translicer to “ON”. • 11. Turn the conveyor for transferring leaves into the translicer to “ON”. • 12. Ensure that the chopped Romaine are delivered evenly into the flume tank without aggregation and clumping. • 13. Collect three untreated bags of Romaine Lettuce from each bin (1 top, 1 middle, and 1 bottom). • 14. Collect three treated bags of Romaine Lettuce at the end of F2 (1 beginning, 1 middle, and 1 end of the bin). • 15. Verify the pH, temperature, and the concentration of FE at the 1st flume tank (F1), 1st Reservoir (R1), 2nd Flume tank (F2), and the 2nd Reservoir (R2) before and after processing a bin. • 16. Place white totes at the bottom of the locations with water spill. Return the spilt water back into the flume tank as needed. • 17. Place white totes at the bottom outlets of the centrifuge to collect liquid that would be spin off from the leaves. Return the collected water back into the flume tank as needed. • 18. Repeat Steps ‘e’ to ‘o’ for the rest of the bins till the FE concentrations fall below the lowest processing limits. • 19. […]

[4] = 600 gallons wash water, whole run
[5] = cumulative diced Romaine added 0.0 lb
[6] = cumulative diced Romaine added 55.2 lb
[7] = cumulative diced Romaine added 114.9 lb
[8] = cumulative diced Romaine added 157.2 lb
[9] = cumulative diced Romaine added 207.7 lb
[10] = cumulative diced Romaine added 272.9 lb
[11] = cumulative diced Romaine added 325.8 lb
[12] = cumulative diced Romaine added 371.3 lb
[13] = cumulative diced Romaine added 424.7 lb
[14] = cumulative diced Romaine added 502.6 lb
[15] = cumulative diced Romaine added 565.0 lb
[16] = cumulative diced Romaine added 629.0 lb
[17] = cumulative diced Romaine added 697.1 lb
[18] = cumulative diced Romaine added 762.7 lb
[19] = cumulative diced Romaine added 826.6 lb
[20] = cumulative diced Romaine added 896.2 lb
[21] = cumulative diced Romaine added 949.9 lb

CC(=O)OO [Peroxyacetic acid, peroxyacetic acid]
Oxidation Capacity [1]: 1.81 eV | Log Reduction, Aerobic Plate Counts [2]: 0.7 Log cfu/g | Aerobic Plate Counts after wash ([2]; untreated 3.4): 2.7 Log cfu/g | Amount of PA consumed [3, 4]: 11.7 ppm | Pounds of PA consumed [3, 4]: 0.01208 lb | Depletion of PA ([3]; 600 gallons wash water, no lactic acid): 0.000013 lb of PA per lb of Romaine | PA (ppm) [3, 5]: 84.8 ppm | Peroxide (ppm) [3, 5]: 7.5 ppm | PA (ppm) [3, 6]: 83.3 ppm | Peroxide (ppm) [3, 6]: 7.4 ppm | PA (ppm) [3, 7]: 82.7 ppm | Peroxide (ppm) [3, 7]: 7.4 ppm | PA (ppm) [3, 8]: 82.4 ppm | Peroxide (ppm) [3, 8]: 7.4 ppm | PA (ppm) [3, 9]: 82.0 ppm | Peroxide (ppm) [3, 9]: 7.4 ppm | PA (ppm) [3, 10]: 81.4 ppm | Peroxide (ppm) [3, 10]: 7.3 ppm | PA (ppm) [3, 11]: 81.0 ppm | Peroxide (ppm) [3, 11]: 7.3 ppm | PA (ppm) [3, 12]: 80.5 ppm | Peroxide (ppm) [3, 12]: 7.1 ppm | PA (ppm) [3, 13]: 79.6 ppm | Peroxide (ppm) [3, 13]: 6.9 ppm | PA (ppm) [3, 14]: 78.7 ppm | Peroxide (ppm) [3, 14]: 6.9 ppm | PA (ppm) [3, 15]: 78.4 ppm | Peroxide (ppm) [3, 15]: 6.9 ppm | PA (ppm) [3, 16]: 77.7 ppm | Peroxide (ppm) [3, 16]: 6.4 ppm | PA (ppm) [3, 17]: 76.1 ppm | Peroxide (ppm) [3, 17]: 6.4 ppm | PA (ppm) [3, 18]: 75.4 ppm | Peroxide (ppm) [3, 18]: 6.1 ppm | PA (ppm) [3, 19]: 74.7 ppm | Peroxide (ppm) [3, 19]: 6.0 ppm | PA (ppm) [3, 20]: 73.7 ppm | Peroxide (ppm) [3, 20]: 6.0 ppm | PA (ppm) [3, 21]: 73.1 ppm | Peroxide (ppm) [3, 21]: 6.0 ppm
